≈ marks a conversion by molar mass, not a printed value. Where two headings read alike, the source gives them in different places.
What was measured:
[1] = Solubility in buffer systems A-G; type: physicochemical; settings: thermodynamic from solid
Description: A magnetic stirring bar was added to the mixtures. […] If the compound was dissolved, the result was reported (twice the weighed amount of compound/ml). If the compound was not dissolved, 0.5 ml of extra solvent was added to the suspension. […] If the compound was dissolved, the result was reported (weighed amount of compound/ml). If the compound was not dissolved, 1 ml of extra solvent is pipetted into the suspension. The mixtures were shaken (Edmund Buhler SM25 175 SPM) at ambient temperature overnight and inspected afterwards. If the compound was dissolved, the result was reported (half the weighed amount of compound/ml). If the compound was not dissolved, the suspension was filtered over a filter disc. An aliquot of the filtrate was diluted with an appropriate solvent (0.1 N HCl/acetonitrile 1/1) and submitted for concentration measurement (mg/ml) using a generic UPLC method.

[2] = test system: Microsporum canis (strain B68128); experiment: Analogous protocol: comparison compounds (G10, G11) against M. canis in guinea pigs after oral treatment; type: in vivo; set-up: key to semi-quantitative lesion score (mean): lesion score 0–3.5 by severity and size of lesion; settings: oral 50 mg/kg once daily for 7 days
Description: (§1) The animals used in the tests described below were female Guinea pigs (Duncan-Hartley, Charles River, 200 g). These animals were kept in groups of 2 or 3 in cages of 56×33×20 cm^3. Food pellets (Carfil Quality) and water were available ad libitum in addition to a small daily amount of hay. Standard husbandry conditions were adopted: room temperature: 22° C., humidity level: 60% and a day-night cycle of 12 h.
(§2) For the preparation of inoculums, Microsporum canis (strain B68128) was grown on Sabouraud Dextrose Agar (SDA) plates for at least one week (7-10 days) before infection (27° C.). On the day of infection, spores were harvested by adding 4-5 ml sterile water on the plate and suspending the infectious material with a bend Pasteur pipette. From the recollected fluid, 10 μl was added to a KOVA counting chamber for determination of the number of spores in 1 square (average of several squares). If needed, additional dilutions (10× or 100×) were prepared. The average number of spores in one square×dilution×90.000=cfu/ml. An inoculum of 1×10^7 cfu/ml was prepared in a honey-water mixture (50%-50%).
(§3) In the tests described below, semi-quantitative lesion scores were given based on different clinical parameters. Scores between 0 and 3.5 were assigned based on the severity and size of the lesion. The criteria are listed in detail in Table 6.
For the sake of comparison, 2 compounds not having the 1,1-difluoroethyl moiety in the R^5 or R^6 position, were tested in an analogous protocol:
The dorsum of the guinea pigs was shaved and further depilated for 7 minutes with Veet® creme before scarification with a steel brush. An inoculum of 10^6 cfu in 200 μl (100 μl mQ+100 μl honey) was applied to the wound using a micropipette with disposable tips. The animal was kept immobilized until the inoculum had completely dried.
Vehicle: methocel F4M Premium EP, Tween 80® (polysorbate 80), demineralised water.
Test compounds: prepared at 30 mg/ml, subsequently further diluted until 6 mg/ml.
Oral treatment (gavage 0.40 ml/guinea pig once daily) was started about 2 hours before infection and continued once daily for 7 consecutive days.
Developments of lesions were evaluated following the semi-quantitative lesion scoring system (see Table 6) on days 3, 5, 7, 10, 12, 14, 18 and 21. Reported values in Table 8 are mean values.

[3] = test system: Candida parapsilosis B66126; experiment: Antifungal activity in vitro (resazurin susceptibility screen), Inf. D; type: cell-based; settings: Lodderomyces parapsilosis, B66126, Candida parapsilosis B66126; 37 °C, 24 hours, resa time 4 hours
Outline: (§4)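 Compound dilutions spotted on plates, highest in-test concentration 64 μM. Inoculum of 10^3 cfu/well in RPMI-MOPS pH 7.0 added, then incubated by species (yeasts 24 h at 37° C; dermatophytes one week or more at 27° C). Resazurin added for a further period before fluorescence reading.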

[4] = test system: Microsporum canis (strain B68128); experiment: Test D.4.1: activity against M. canis in guinea-pigs after oral treatment for 7 consecutive days; type: in vivo; set-up: key to semi-quantitative lesion score (mean): lesion score 0–3.5 by severity and size of lesion
Description: as §1, §2, §3
The dorsum of the guinea pigs was shaved and further depilated for 3 minutes with Veet® creme before scarification with a steel brush. An inoculum of 10^6 cfu in 150 μl (75 mQ+75 μl honey) was applied to the wound using a micropipette with disposable tips. The animal was kept immobilized until the inoculum had completely dried. […]
vehicle: methocel 0.5%, Tween 80® (polysorbate 80), demineralised water reference compound: itraconazole at 6.25 mg/ml test compounds: prepared at 25 mg/ml, subsequently further diluted
Oral treatment (gavage 0.16 ml/100 g once daily) was started about 2 hours before infection and continued once daily for 7 consecutive days. The animals were weighed after 3 days of treatment to adjust for the dose.
Developments of lesions were evaluated following the semi-quantitative lesion scoring system (see Table 6) on days 3, 5, 7, 10, 12, 14, 17 and 20. The results are show in Table 7 (“DPI” means days post infection). Reported values in Table 7 are mean values.

[5] = test system: Cryptococcus neoformans B66663; experiment: Antifungal activity in vitro (resazurin susceptibility screen), Inf. F; type: cell-based; settings: Cryptococcus neoformans, B66663, Cryptococcus neoformans B66663; 37 °C, 24 hours, resa time 4 hours
Outline: as §4

[6] = test system: Sporothrix schenkii B62482; experiment: Antifungal activity in vitro (resazurin susceptibility screen), Inf. A; type: cell-based; settings: Sporothrix, B62482, Sporothrix schenkii B62482; 27 °C, 4 days, resa time 24 hours
Outline: as §4

[7] = test system: Trichophyton rubrum B68183; experiment: Antifungal activity in vitro (resazurin susceptibility screen), Inf. C; type: cell-based; settings: Trichophyton rubrum, B68183, Trichophyton rubrum B68183; 27 °C, 7 days, resa time 24 hours
Outline: as §4

Microsporum canis B68128 = experiment: Antifungal activity in vitro (resazurin susceptibility screen), Inf. B; type: cell-based; settings: Microsporum canis, B68128, Microsporum canis B68128; 27 °C, 9 days, resa time 24 hours
Outline: as §4

[8] = test system: Rhizomucor miehei IHEM13391; experiment: Antifungal activity in vitro (resazurin susceptibility screen), Inf. K; type: cell-based; settings: Rhizomucor miehei, IHEM13391, Rhizomucor miehei IHEM13391; 37 °C, 48 hours, resa time 17 hours
Outline: as §4

[9] = test system: Scedosporium apiospermum IHEM3817; experiment: Antifungal activity in vitro (resazurin susceptibility screen), Inf. H; type: cell-based; settings: Scedosporium apiospermum, IHEM3817, Scedosporium apiospermum IHEM3817; 37 °C, 48 hours, resa time 17 hours
Outline: as §4

[10] = test system: Trichophyton mentagrophytes B70554; experiment: Antifungal activity in vitro (resazurin susceptibility screen), Inf. G; type: cell-based; settings: Trichophyton mentagrophytes, B70554, Trichophyton mentagrophytes B70554; 27 °C, 7 days, resa time 24 hours
Outline: as §4

[11] = test system: Scedosporium prolificans IHEM21157; experiment: Antifungal activity in vitro (resazurin susceptibility screen), Inf. I; type: cell-based; settings: Lomentospora prolificans, 37 °C, 48 hours, resa time 17 hours
Outline: as §4

[12] = test system: Mucor circinelloides IHEM21105; experiment: Antifungal activity in vitro (resazurin susceptibility screen), Inf. L; type: cell-based; settings: 27 °C, 48 hours, resa time 17 hours
Outline: as §4

Rhizopus oryzae IHEM5223 = experiment: Antifungal activity in vitro (resazurin susceptibility screen), Inf. J; type: cell-based; settings: Rhizopus arrhizus, 37 °C, 24 hours, resa time 6 hours
Outline: as §4

[13] = test system: Aspergillus fumigatus B42928; experiment: Antifungal activity in vitro (resazurin susceptibility screen), Inf. E; type: cell-based; settings: Aspergillus fumigatus, B42928, Aspergillus fumigatus B42928; 27 °C, 48 hours, resa time 17 hours
Outline: as §4

## CC(F)(F)c1ccc(C2=NCc3ccc(Cl)cc3-n3cccc32)cc1 [drawing 30]
[1]; pH 4, aqueous with cosolvent or surfactant or cyclodextrin, buffer pH 4, containing 10% (w/v) of HPBCD, read-out: Solubility, buffer system C
  solubility: 1230 µg/mL (≈ 3440 µM)
[1]; pH 7.4, aqueous with cosolvent or surfactant or cyclodextrin, buffer pH 7.4, containing 10% (w/v) of HPBCD, read-out: Solubility, buffer system F
  solubility: 191 µg/mL (≈ 535 µM)
[1]; pH 7.4, aqueous with cosolvent or surfactant or cyclodextrin, buffer pH 7.4, containing 20% (w/v) of HPBCD, read-out: Solubility, buffer system G
  solubility: 603 µg/mL (≈ 1690 µM)
[1]; phosphate-citrate (McIlvaine) buffer pH 4, pH 4, aqueous buffer, buffer pH 4, ambient temperature, read-out: Solubility, buffer system B
  solubility: 87 µg/mL (≈ 244 µM)
[1]; phosphate-citrate (McIlvaine) buffer pH 7.4, pH 7.4, aqueous buffer, buffer pH 7.4, ambient temperature, read-out: Solubility, buffer system E
  solubility: < 1 µg/mL

## CCc1ccc(C2=NCc3c(Cl)cccc3-n3cccc32)cc1 [Compound G11]
[2]
  activity against M. canis (in words): partial activity
  activity compared with present compounds 14 and 4 (G7 and G4, both at 40 mg/kg): less active
[2]; 3 DPI
  semi-quantitative lesion score (mean): 0
[2]; 5 DPI
  semi-quantitative lesion score (mean): 0
[2]; 7 DPI
  semi-quantitative lesion score (mean): 0.5
[2]; 10 DPI
  semi-quantitative lesion score (mean): 0.5
[2]; 12 DPI
  semi-quantitative lesion score (mean): 0.5
[2]; 14 DPI
  semi-quantitative lesion score (mean): 1
[2]; 18 DPI
  semi-quantitative lesion score (mean): 0.5
[2]; 21 DPI
  semi-quantitative lesion score (mean): 0.5

## CCc1cccc(C2=NCc3c(Cl)cccc3-n3cccc32)c1 [Compound G10]
[2]
  activity against M. canis (in words): partial activity
  activity compared with present compounds 14 and 4 (G7 and G4, both at 40 mg/kg): less active
[2]; 3 DPI
  semi-quantitative lesion score (mean): 0
[2]; 5 DPI
  semi-quantitative lesion score (mean): 0.5
[2]; 7 DPI
  semi-quantitative lesion score (mean): 1
[2]; 10 DPI
  semi-quantitative lesion score (mean): 1
[2]; 12 DPI
  semi-quantitative lesion score (mean): 2
[2]; 14 DPI
  semi-quantitative lesion score (mean): 1
[2]; 18 DPI
  semi-quantitative lesion score (mean): 1
[2]; 21 DPI
  semi-quantitative lesion score (mean): 0.5

## CC(F)(F)c1cccc(C2=NCc3c(Cl)cccc3-n3cccc32)c1 [Compound 14, 7-chloro-4-[3-(1,1-difluoroethyl)phenyl]-6H-pyrrolo[1,2-a][1,4]benzodiazepine]
[3]
  IC50: 3.02 µM
[4]; oral 10 mg/kg once daily for 7 days, 3 DPI
  semi-quantitative lesion score (mean): 0.33
[4]; oral 10 mg/kg once daily for 7 days, 5 DPI
  semi-quantitative lesion score (mean): 1.17
[4]; oral 10 mg/kg once daily for 7 days, 7 DPI
  semi-quantitative lesion score (mean): 2.00
[4]; oral 10 mg/kg once daily for 7 days, 10 DPI
  semi-quantitative lesion score (mean): 2.17
[4]; oral 10 mg/kg once daily for 7 days, 12 DPI
  semi-quantitative lesion score (mean): 2.33
[4]; oral 10 mg/kg once daily for 7 days, 14 DPI
  semi-quantitative lesion score (mean): 2.17
[4]; oral 10 mg/kg once daily for 7 days, 17 DPI
  semi-quantitative lesion score (mean): 1.67
[4]; oral 10 mg/kg once daily for 7 days, 20 DPI
  semi-quantitative lesion score (mean): 1.17
[4]; oral 20 mg/kg once daily for 7 days, 3 DPI
  semi-quantitative lesion score (mean): 0
[4]; oral 20 mg/kg once daily for 7 days, 5 DPI
  semi-quantitative lesion score (mean): 0.33
[4]; oral 20 mg/kg once daily for 7 days, 7 DPI
  semi-quantitative lesion score (mean): 0.83
[4]; oral 20 mg/kg once daily for 7 days, 10 DPI
  semi-quantitative lesion score (mean): 1.67
[4]; oral 20 mg/kg once daily for 7 days, 12 DPI
  semi-quantitative lesion score (mean): 2.00
[4]; oral 20 mg/kg once daily for 7 days, 14 DPI
  semi-quantitative lesion score (mean): 1.67
[4]; oral 20 mg/kg once daily for 7 days, 17 DPI
  semi-quantitative lesion score (mean): 1.50
[4]; oral 20 mg/kg once daily for 7 days, 20 DPI
  semi-quantitative lesion score (mean): 0.67
[4]; oral 40 mg/kg once daily for 7 days
  activity compared with the terbinafine group (G2, 10 mg/kg): comparable to G2
[4]; oral 40 mg/kg once daily for 7 days, 3 DPI
  semi-quantitative lesion score (mean): 0
[4]; oral 40 mg/kg once daily for 7 days, 5 DPI
  semi-quantitative lesion score (mean): 0.17
[4]; oral 40 mg/kg once daily for 7 days, 7 DPI
  semi-quantitative lesion score (mean): 0.67
[4]; oral 40 mg/kg once daily for 7 days, 10 DPI
  semi-quantitative lesion score (mean): 1.17
[4]; oral 40 mg/kg once daily for 7 days, 12 DPI
  semi-quantitative lesion score (mean): 0.83
[4]; oral 40 mg/kg once daily for 7 days, 14 DPI
  semi-quantitative lesion score (mean): 0.50
[4]; oral 40 mg/kg once daily for 7 days, 17 DPI
  semi-quantitative lesion score (mean): 0.17
[4]; oral 40 mg/kg once daily for 7 days, 20 DPI
  semi-quantitative lesion score (mean): 0.17
[5]
  IC50: 37.2 µM
[6]
  IC50: 43.7 µM
[7]
  IC50: 0.372 µM
other
  melting point: 106.9 to 109.7 °C
Microsporum canis B68128
  IC50: 0.525 µM
[8]
  IC50: 45.7 µM
[9]
  IC50: 1.74 µM
[10]
  IC50: 0.603 µM
[11]
  IC50: 1.32 µM
[12]
  IC50: > 64.6 µM
Rhizopus oryzae IHEM5223
  IC50: > 64.6 µM
[13]
  IC50: 2 µM

Reference: US9637490B2, “Antifungal 5,6-dihydro-4-[(difluoroethyl)phenyl]-4H-pyrrolo[1,2-α][1,4]benzodiazepine and 4-(difluoroethyl)phenyl-6H-pyrrolo[1,2-α][1,4]benzodiazepine derivatives” (Janssen Pharmaceutica NV, priority 2010, dated 2017)
